Measurements from US20240342186A1, “PYRIDINE DERIVATIVES WITH N-LINKED CYCLIC SUBSTITUENTS AS cGAS INHIBITORS” (Boehringer Ingelheim International GmbH, priority 2021, published 2024).

Assays:
[1] = test system: cellular cGAS activity in baculovirus-stimulated THP1-Dual cells (IRF dependent Lucia luciferase reporter); experiment: Human cGAS cell assay: inhibition of IFN induction in virus-stimulated THP1 cells (THP1(vir) IC50); type: cell-based; conditions: Homo sapiens, THP1-Dual; inhibition of IFN induction in virus-stimulated THP1 cells; read-out: THP1(vir) IC50
Method in brief: (§1)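 THP1-Dual cells with IRF-dependent Lucia luciferase reporter, stimulated by empty baculovirus (dsDNA delivery activating cGAS) or, for the counter assay, directly by cGAMP. 5000 cells/well, 8 concentrations from 10 μM top, 1% DMSO, 18 h at 37 °C; luminescence read, IC50 by 4-parameter logistic fit versus unstimulated low control.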

[2] = test system: cellular cGAS activity in dsDNA-stimulated human whole blood; experiment: Human whole blood assay (hWB IC50): IFNα2α production after dsDNA transfection; type: cell-based; conditions: inhibition of IFN induction in dsDNA-stimulated human whole blood
Method in brief: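 Citrated blood from healthy donors preincubated 60 min at room temperature with compound (top 10 µM, ~1:5 steps, 0.1% DMSO), then transfected with dsDNA/Fugene and incubated 22 h at 37 °C. Plasma IFNα2α measured by MSD immunoassay; IC50 from 4-parameter fit of % control (stimulated vs unstimulated).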

[3] = test system: cGAMP-stimulated THP1-Dual cells (pathway directly downstream of cGAS); experiment: cGAMP stimulated counter cell assay: inhibition of IFN induction in cGAMP-stimulated THP1 cells (THP1(cGAMP) IC50); type: cell-based, human; conditions: for IC50: Homo sapiens, THP1-Dual, inhibition of IFN induction in cGAMP-stimulated THP1 cells, read-out: THP1(cGAMP) IC50 (converted); for Ratio THP1(cGAMP) IC50 / THP1(vir) IC50: selectivity for cGAS inhibition
Method in brief: as §1

cGAS = cGAS (Homo sapiens (Human), UniProt Q8N884); experiment: Human cGAS enzyme assay (hcGAS IC50, in vitro), cGAMP formation by RapidFire MS; type: biochemical; conditions: biochemical (in vitro) cGAS inhibition;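 also: enzyme activated by 45 bp dsDNA with GTP and ATP (30 µM each), 60 min compound pre-incubation then 90 min reaction, cGAMP relative to cyclic-di-GMP internal standard, 8-point dilutions up to 10 µM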
Chain of cGAS (Q8N884 whole entry): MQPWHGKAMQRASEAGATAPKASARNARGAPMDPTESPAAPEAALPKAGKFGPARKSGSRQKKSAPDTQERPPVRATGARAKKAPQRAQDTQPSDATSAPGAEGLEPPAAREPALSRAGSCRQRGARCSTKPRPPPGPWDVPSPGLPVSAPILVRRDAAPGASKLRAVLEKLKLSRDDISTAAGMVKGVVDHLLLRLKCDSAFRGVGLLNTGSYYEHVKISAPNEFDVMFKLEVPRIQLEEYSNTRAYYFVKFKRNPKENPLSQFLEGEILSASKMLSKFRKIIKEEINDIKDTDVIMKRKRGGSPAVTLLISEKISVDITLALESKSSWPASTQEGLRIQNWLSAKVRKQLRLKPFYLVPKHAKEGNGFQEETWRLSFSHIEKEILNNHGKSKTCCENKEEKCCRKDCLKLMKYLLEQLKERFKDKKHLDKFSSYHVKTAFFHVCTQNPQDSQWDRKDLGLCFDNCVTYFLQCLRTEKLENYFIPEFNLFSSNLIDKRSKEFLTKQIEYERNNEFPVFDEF

SMILES | IC50 [1] | IC50 [2] | IC50 [3] | Ratio THP1(cGAMP) IC50 / THP1(vir) IC50 [3] | IC50 (cGAS)
C[C@@H]1N(c2cc(-c3cccc(C(N)=O)c3)cnc2O[C@H]2C[C@@H](C(=O)O)N(c3nc(C(F)(F)F)nc4c3oc3ccccc34)C2)CCOC12COC2 [Example 3.13] | 25 nM | 65 nM | 8350 nM | 335 | 9 nM
COc1ncccc1-c1cnc(O[C@H]2C[C@@H](C(=O)O)N(c3nc(C(F)(F)F)nc4c3oc3ccccc34)C2)c(N2CCOC3(COC3)[C@@H]2C)c1 [Example 3.14] | 10 nM | 26 nM | 7830 nM | 822 | 11 nM
CC(=O)Nc1cc(-c2cnc(O[C@H]3C[C@@H](C(=O)O)N(c4nc(C(F)F)nc5c4oc4ccccc45)C3)c(N3CCOC4(COC4)[C@@H]3C)c2)ccn1 [Example 3.15] | 57 nM | 22 nM | 19900 nM | 348 | 10 nM
CSc1cc(-c2cnc(O[C@H]3C[C@@H](C(=O)O)N(c4nc(C(F)F)nc5c4oc4ccccc45)C3)c(N3CCOC4(COC4)[C@@H]3C)c2)ccn1 [Example 3.16, (2S,4S)-1-[4-(difluoromethyl)-8-oxa-3,5-diazatricyclo-[7.4.0.0^2.7]trideca-1(9),2(7),3,5,10,12-hexaen-6-yl]-4-({5-[(9S)-9-methyl-2,5-dioxa-8-azaspiro[3.5]nonan-8-yl]-2′-(methylsulfanyl)-[3,4′-bipyridin]-6-yl}oxy)-pyrrolidine-2-carboxylic acid] | 19 nM | 38 nM | 11800 nM | 629 | 15 nM
C[C@@H]1N(c2cc(-c3cccc(N(C)C)c3)cnc2O[C@H]2C[C@@H](C(=O)O)N(c3nc(C(F)(F)F)nc4c3oc3ccccc34)C2)CCOC12COC2 [Example 3.17] | 11 nM | 43 nM | 16800 nM | 1542 | 20 nM
CNc1cncc(-c2cnc(O[C@H]3C[C@@H](C(=O)O)N(c4nc(C(F)(F)F)nc5c4oc4ccccc45)C3)c(N3CCOC4(COC4)[C@@H]3C)c2)c1 [Example 3.18] | 7 nM | 44 nM | 4760 nM | 645 | 3 nM
C[C@@H]1N(c2cc(-c3cccc(CN)c3)cnc2O[C@H]2C[C@@H](C(=O)O)N(c3nc(C(F)F)nc4c3oc3ccccc34)C2)CCOC12COC2 [Example 3.19] | 267 nM | 47 nM | > 16600 nM | >62 | 8 nM
C[C@@H]1N(c2cc(-c3cn(C)cn3)cnc2O[C@H]2C[C@@H](C(=O)O)N(c3nc(C(F)(F)F)nc4c3oc3ccccc34)C2)CCOC12COC2 [Example 3.20] | 30 nM | 50 nM | 11500 nM | 383 | 3 nM
C[C@@H]1N(c2cc(-c3ccnc(C#N)c3)cnc2O[C@H]2C[C@@H](C(=O)O)N(c3nc(C(F)F)nc4c3oc3ccccc34)C2)CCOC12COC2 [Example 3.21] | 24 nM | 55 nM | 11700 nM | 483 | 4 nM
CNCc1cccc(-c2cnc(O[C@H]3C[C@@H](C(=O)O)N(c4nc(C(F)(F)F)nc5c4oc4ccccc45)C3)c(N3CCOC4(COC4)[C@@H]3C)c2)c1 [Example 3.22] | 177 nM | 70 nM | 8910 nM | 50 | 16 nM
C[C@@H]1N(c2cc(-c3ccc(C#N)nc3)cnc2O[C@H]2C[C@@H](C(=O)O)N(c3nc(C(F)(F)F)nc4c3oc3ccccc34)C2)CCOC12COC2 [Example 3.23] | 10 nM | 70 nM | 10000 nM | 1029 | 8 nM
C[C@@H]1N(c2cc(-c3cccc(C(N)=O)c3)cnc2O[C@H]2C[C@@H](C(=O)O)N(c3nc(C(F)F)nc4c3oc3ccccc34)C2)CCOC12COC2 [Example 3.24] | 57 nM | 322 nM | 19200 nM | 336 | 6 nM
COc1cc(-c2cnc(O[C@H]3C[C@@H](C(=O)O)N(c4nc(C(F)(F)F)nc5c4oc4ccccc45)C3)c(N3CCOC4(COC4)[C@@H]3C)c2)c(F)cn1 [Example 3.25] | 19 nM | 96 nM | 9710 nM | 502 | 9 nM
C[C@@H]1N(c2cc(-c3cncc(Cl)c3)cnc2O[C@H]2C[C@@H](C(=O)O)N(c3nc(C(F)(F)F)nc4c3oc3ccccc34)C2)CCOC12COC2 [Example 3.26] | 48 nM | 1370 nM | 9240 nM | 193 | 11 nM
Cc1noc(C)c1-c1cnc(O[C@H]2C[C@@H](C(=O)O)N(c3nc(C(F)(F)F)nc4c3oc3ccccc34)C2)c(N2CCOC3(COC3)[C@@H]2C)c1 [Example 3.27] | 326 nM | 1860 nM | 12500 nM | 38 | 21 nM
C[C@@H]1N(c2cc(-c3ccc(OC4CCOCC4)nc3)cnc2O[C@H]2C[C@@H](C(=O)O)N(c3nc(C(F)(F)F)nc4c3oc3ccccc34)C2)CCOC12COC2 [Example 3.29] | 591 nM | 1570 nM | 6540 nM | 11 | 66 nM
C[C@@H]1N(c2cc(-c3cnn(C(F)(F)F)c3)cnc2O[C@H]2C[C@@H](C(=O)O)N(c3nc(C(F)(F)F)nc4c3oc3ccccc34)C2)CCOC12COC2 [Example 3.30] | 15 nM | 84 nM | 12600 nM | 829 | 26 nM
C[C@@H]1N(c2cc(-c3cnn(C(F)F)c3)cnc2O[C@H]2C[C@@H](C(=O)O)N(c3nc(C(F)(F)F)nc4c3oc3ccccc34)C2)CCOC12COC2 [Example 3.31] | 3 nM | 28 nM | 10900 nM | 4120 | 11 nM
COc1cc(-c2cnc(O[C@H]3C[C@@H](C(=O)O)N(c4nc(C(F)F)nc5c4oc4ccccc45)C3)c(N3CCOC4(COC4)[C@@H]3C)c2)c(F)cn1 [Example 3.32] | 2 nM | 17 nM | 12900 nM | 5194 | 9 nM
COc1c(-c2cnc(O[C@H]3C[C@@H](C(=O)O)N(c4nc(C(F)F)nc5c4oc4ccccc45)C3)c(N3CCOC4(COC4)[C@@H]3C)c2)ccnc1N(C)C [Example 4.02] | 17 nM | 42 nM | 12600 nM | 735 | 12 nM
CNc1nccc(-c2cnc(O[C@H]3C[C@@H](C(=O)O)N(c4nc(C(F)F)nc5c4oc4ccccc45)C3)c(N3CCOC4(COC4)[C@@H]3C)c2)c1OC [Example 4.03] | 199 nM | 78 nM | 7870 nM | 40 | 8 nM
